Data as given in BigSolDB 2.1.

Clc1ccccc1C(c1ccccc1)(c1ccccc1)n1ccnc1
solubility (mole fraction) (in 1,4-dioxane, 288.15 K): 0.0385 | solubility (mole fraction) (in 1,4-dioxane, 293.15 K): 0.0441 | solubility (mole fraction) (in 1,4-dioxane, 298.15 K): 0.05 | solubility (mole fraction) (in 1,4-dioxane, 303.15 K): 0.0568 | solubility (mole fraction) (in 1,4-dioxane, 308.15 K): 0.0643 | solubility (mole fraction) (in 1,4-dioxane, 313.15 K): 0.0731 | solubility (mole fraction) (in 1,4-dioxane, 318.15 K): 0.0813 | solubility (mole fraction) (in 1,4-dioxane, 323.15 K): 0.091 | solubility (mole fraction) (in acetonitrile, 278.15 K): 0.00173 | solubility (mole fraction) (in acetonitrile, 283.15 K): 0.00212 | solubility (mole fraction) (in acetonitrile, 288.15 K): 0.00264 | solubility (mole fraction) (in acetonitrile, 293.15 K): 0.00316 | solubility (mole fraction) (in acetonitrile, 298.15 K): 0.00378 | solubility (mole fraction) (in acetonitrile, 303.15 K): 0.00453 | solubility (mole fraction) (in acetonitrile, 308.15 K): 0.00539 | solubility (mole fraction) (in acetonitrile, 313.15 K): 0.00636 | solubility (mole fraction) (in acetonitrile, 318.15 K): 0.00741 | solubility (mole fraction) (in acetonitrile, 323.15 K): 0.00886 | solubility (mole fraction) (in isopropanol, 278.15 K): 0.00782 | solubility (mole fraction) (in isopropanol, 283.15 K): 0.00947 | solubility (mole fraction) (in isopropanol, 288.15 K): 0.0114 | solubility (mole fraction) (in isopropanol, 293.15 K): 0.0137 | solubility (mole fraction) (in isopropanol, 298.15 K): 0.0164 | solubility (mole fraction) (in isopropanol, 303.15 K): 0.0195 | solubility (mole fraction) (in isopropanol, 308.15 K): 0.0228 | solubility (mole fraction) (in isopropanol, 313.15 K): 0.0266 | solubility (mole fraction) (in isopropanol, 318.15 K): 0.031 | solubility (mole fraction) (in isopropanol, 323.15 K): 0.036 | solubility (mole fraction) (in n-propanol, 278.15 K): 0.0125 | solubility (mole fraction) (in n-propanol, 283.15 K): 0.0151 | solubility (mole fraction) (in n-propanol, 288.15 K): 0.0181 | solubility (mole fraction) (in n-propanol, 293.15 K): 0.0215 | solubility (mole fraction) (in n-propanol, 298.15 K): 0.0257 | solubility (mole fraction) (in n-propanol, 303.15 K): 0.0301 | solubility (mole fraction) (in n-propanol, 308.15 K): 0.0353 | solubility (mole fraction) (in n-propanol, 313.15 K): 0.0413 | solubility (mole fraction) (in n-propanol, 318.15 K): 0.0477 | solubility (mole fraction) (in n-propanol, 323.15 K): 0.0554 | solubility (mole fraction) (in water, 278.15 K): 9.28e-09 | solubility (mole fraction) (in water, 283.15 K): 1.22e-08 | solubility (mole fraction) (in water, 288.15 K): 1.56e-08 | solubility (mole fraction) (in water, 293.15 K): 1.98e-08 | solubility (mole fraction) (in water, 298.15 K): 2.47e-08 | solubility (mole fraction) (in water, 303.15 K): 3.11e-08 | solubility (mole fraction) (in water, 308.15 K): 3.85e-08 | solubility (mole fraction) (in water, 313.15 K): 4.78e-08 | solubility (mole fraction) (in water, 318.15 K): 5.9e-08 | solubility (mole fraction) (in water, 323.15 K): 7.07e-08
